# Target: T1, M2 receptor (Homo sapiens, UniProt P08172, DEL233-374)
# T1 construct: FLAG (N); expressed in transfected cells
# T1 sequence (P08172 with tags, fused parts or gaps DEL233-374): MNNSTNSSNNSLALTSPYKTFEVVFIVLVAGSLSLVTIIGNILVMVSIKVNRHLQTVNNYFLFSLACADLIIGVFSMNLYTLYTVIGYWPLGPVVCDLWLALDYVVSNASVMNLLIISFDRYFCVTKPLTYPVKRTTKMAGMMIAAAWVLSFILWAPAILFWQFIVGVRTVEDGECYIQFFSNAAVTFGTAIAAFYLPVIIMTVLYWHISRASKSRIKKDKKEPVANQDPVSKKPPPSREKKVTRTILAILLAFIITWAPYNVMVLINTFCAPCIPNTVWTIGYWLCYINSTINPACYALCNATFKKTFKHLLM
# Assay: Assay of the invention: M2-LgBiT fusion and Nb9-8-SmBiT fusion
# Type: cell-based
smiles,measurement,setting,value
Cc1c(Cl)c(OCC(=O)N2CCN(C)CC2)nc2sc(C(=O)NC3CC3)c(N)c12 [LY2119620],agonistic effect on the M2 receptor,"LY2119620 itself, data not shown",some agonistic effect
same,effect on the dose-response curve of iperoxo,iperoxo DRC with and without LY2119620,effect as a positive allosteric modulator
